Source: patent US8367720B2 (Panorama Research Inc., priority 2007, dated 2013)
Structures can show the parent of a compound that is named as a salt. Where two headings read alike, the source gives them in different places.

Experiments:
[1] = system: E. coli; experiment: Inhibition zone test (holing method); type: cell-based; conditions: 37° C., 24 h; compounds 0.05 mg/well, gentamicin 0.10 mg/well
Method: (§1) After being cultured at 37° C. for 24 h, the sizes of inhibition zones were measured.

[2] = system: Pseudomonas aeruginosa; experiment: Inhibition zone test (holing method); type: cell-based; conditions: 37° C., 24 h; compounds 0.05 mg/well, gentamicin 0.10 mg/well
Method: as §1

[3] = system: Pseudomonas aeruginosa; experiment: Measurement of growth curve of Pseudomonas aeruginosa; type: cell-based; conditions: 10 mM according to FIG. 2 legend
Method: Pseudomonas aeruginosa was inoculated in LB medium, and cultured at a constant temperature of 37° C. in a shaker overnight.

[4] = system: L1210 leukemia cells; experiment: In vitro antitumor activity to L1210 leukemia cells (MTT); type: cell-based
Method: The cells were cultured in an incubator at 37° C., 5% CO2 and saturated humidity for 48 h. Then 5 mg/mL MTT (20 μL/well) was added and cultured at the same conditions for 4 h, DMSO (150 μL/well) was added, and the (570/630 nm) absorbance (A values) was measured by using micro-plate reader.

[5] = system: Staphylococcus aureus MRSA 5677; experiment: Inhibition zone test (holing method); type: cell-based; conditions: 37° C., 24 h; compounds 0.05 mg/well, vancomycin 0.15 mg/well
Method: as §1

[6] = system: Bacillus subtilis; experiment: Inhibition zone test (holing method); type: cell-based; conditions: 37° C., 24 h; compounds 0.05 mg/well, streptomycin 0.15 mg/well
Method: as §1

[7] = system: Staphylococcus aureus MRSA 5676; experiment: Inhibition zone test (holing method); type: cell-based; conditions: 37° C., 24 h; compounds 0.05 mg/well, vancomycin 0.15 mg/well
Method: as §1

[8] = system: Staphylococcus aureus wild type; experiment: Inhibition zone test (holing method); type: cell-based; conditions: 37° C., 24 h; compounds 0.05 mg/well, streptomycin 0.15 mg/well
Method: as §1

[9] = system: Candida albicans; experiment: Inhibition zone test (holing method); type: cell-based; conditions: 37° C., 24 h; compounds 0.05 mg/well, nysfungin 0.10 mg/well
Method: as §1

[10] = system: suspended Pseudomonas aeruginosa; experiment: Experiment of combination with antibiotics; type: cell-based; conditions: Pseudomonas aeruginosa cultured 15 h, OD600; ciprofloxacin 0.017 μg/mL, erythromycin 3.75 μg/mL, Andro 350 μg/mL, AL-1 538 μg/mL (1 μmol/mL)
[11] = system: L1210 cells; type: cell-based
Method: The cells were cultured in an incubator at 37° C., 5% CO2 and saturated humidity. The culture medium was removed, the cells were washed with PBS twice, fixed at −20° C. overnight. Then the cells were centrifuged again, washed with PBS to remove ethanol, cultured with RNase A (200 μg/mL, Sigma) at 37° C. for 1 h, stained with PI (50 μg/mL, Sigma) in dark for 30 min, and detected by using a flow cytometer.

[12] = system: MRSA5677; experiment: Test of minimal inhibitory concentration (MIC); type: cell-based, Staphylococcus aureus; conditions: two-fold dilution, 37° C., 24 h, absorbance 595 nm
[13] = system: Staphylococcus aureus wild type; experiment: Test of minimal inhibitory concentration (MIC); type: cell-based; conditions: two-fold dilution, 37° C., 24 h, absorbance 595 nm
[14] = system: MRSA5676; experiment: Test of minimal inhibitory concentration (MIC); type: cell-based, Staphylococcus aureus; conditions: two-fold dilution, 37° C., 24 h, absorbance 595 nm
[15] = system: rats with STZ-induced diabetes mellitus; experiment: Therapeutical effects on STZ-induced diabetes mellitus in rats; conditions: Day 0, before treatment
Method: 30 Female SD rats, 180-220 g, fasted for 16 h, were subjected to intraperitoneal injection of 60 mg/kg of STZ (purchased from Sigma Company). After 72 h, blood samples were collected from the rats by cutting their tails after fasting 16 h, and blood glucose values were measured by using a blood glucose analyzer (Johnson & Johnson Company). […] Animals were weighed, orbital bleeded, and the sera were separated. According to the instructions of kit (Zhejiang Dongou Biotechnology Co., Ltd.), the contents of triglyceride and total cholesterol were measured. […] The rats of vehicle group were treated with an equivalent volume of solvent (20% DMSO in H2O). After being fasted for 16 h, the rats were weighed, and bleeded for the measurement of blood glucose, triglyceride and total cholesterol. The obtained data were processed by using one-factor analysis of variance (One-way ANOVA) followed by Student's t-test.

[16] = system: secretion of pyocyanin by Pseudomonas aeruginosa; experiment: Measurement of pyocyanin; type: cell-based; conditions: 18 h culture, A520; Andro, AL-1 1 mM; Chuanhuning, Yanhuning, Lianbizhi 10 mM (FIG. 3)
Method: Pseudomonas aeruginosa was inoculated in LB medium, then cultured at a constant temperature of 37° C. in a shaker overnight. […] The supernatant was taken and extracted in turn with chloroform and 0.2 N HCl, and A520 values were measured (Zielinshi et al., Biol. Chem. 1991, 266, 9754-9763; May et al., Clin. Microbiology Rev. 1991, 4, 191-206).

[17] = system: extracellular protease of Pseudomonas aeruginosa; experiment: Measurement of extracellular protease; type: cell-based; conditions: azo-casein, A440; Andro, AL-1 1 mM; Chuanhuning, Yanhuning, Lianbizhi 10 mM (FIG. 4)
Method: Pseudomonas aeruginosa was inoculated in LB liquid, and cultured at a constant temperature of 37° C. in a shaker overnight. […] After the bacterial liquids were cultured simultaneously at 37° C. for 6 h and centrifuged, supernatant 100 μL was taken, azo-casein 5 mg was added, […] and CaCl2 10 mM were added, and then they were shaken for reaction at 37° C. for 6 h, and the reaction was terminated by adding EDTA-Na. The A440 values of the supernatants were measured (Zielinshi et al., Biol. Chem. 1991, 266, 9754-9763; May et al., Clin. Microbiology Rev. 1991, 4, 191-206).

[18] = system: glutathione; conditions: after injection to animals; especially lung, liver and kidney cells; cited from earlier work
[19] = system: NF-kappaB; conditions: 0.5 mmol/L, HAEC pretreated 48 h, TNF-α 10 U/ml; cited from earlier work
[20] = L1210 cells, 48 h, MTT, read-out: IC50

Compound | Inhibition zone diameter, E. coli [1] | Inhibition zone diameter, Pseudomonas aeruginosa [2] | Inhibition zone diameter, Staphylococcus aureus MRSA 5677 [5] | Inhibition zone diameter, Bacillus Subtilis [6] | Inhibition zone diameter, Staphylococcus aureus MRSA 5676 [7] | Inhibition zone diameter, Staphylococcus aureus Wild type [8] | Inhibition zone diameter, Candida albicans [9] | further results
Gentamicin | 20.1 ± 1.00 mm | 21.0 ± 1.00 mm | – | – | – | – | – | –
potassium sodium dehydroandrographolide succinate [Yanhuning] | ^b (incompetence (inhibition zone diameter <4 mm)) | ^b (incompetence (inhibition zone diameter <4 mm)) | ^b (incompetence (inhibition zone diameter <4 mm)) | ^b (incompetence (inhibition zone diameter <4 mm)) | ^b (incompetence (inhibition zone diameter <4 mm)) | ^b (incompetence (inhibition zone diameter <4 mm)) | ^b (incompetence (inhibition zone diameter <4 mm)) | inhibition of the growth of Pseudomonas aeruginosa (growth curve, A600) [3]: no direct inhibition effect; IC50 [4, 20]: > 100 µM
CC[C@H]1OC(=O)[C@H](C)[C@@H](O[C@H]2C[C@@](C)(OC)[C@@H](O)[C@H](C)O2)[C@H](C)[C@@H](O[C@@H]2O[C@H](C)C[C@H](N(C)C)[C@H]2O)[C@](C)(O)C[C@@H](C)C(=O)[C@H](C)[C@@H](O)[C@]1(C)O [Erythromycin] | – | – | – | – | – | – | – | Survival Rate [10]: 93.9%
COc1cccc2c1C(=O)c1c(O)c3c(c(O)c1C2=O)C[C@@](O)(C(=O)CO)C[C@@H]3O[C@H]1C[C@H](N)[C@H](O)[C@H](C)O1 [Dox, doxorubicin hydrochloride] | – | – | – | – | – | – | – | effect on cell cycle of L1210 cells ([11]; concentration not given): arrested L1210 cells at G2 phase
Nysfungin | – | – | – | – | – | – | 10.00 ± 1.00 mm | –
CN[C@H](CC(C)C)C(=O)N[C@H]1C(=O)N[C@@H](CC(N)=O)C(=O)N[C@H]2C(=O)N[C@H]3C(=O)N[C@H](C(=O)N[C@H](C(=O)O)c4cc(O)cc(O)c4-c4cc3ccc4O)[C@H](O)c3ccc(c(Cl)c3)Oc3cc2cc(c3O[C@@H]2O[C@H](CO)[C@@H](O)[C@H](O)[C@H]2O[C@H]2C[C@](C)(N)[C@H](O)[C@H](C)O2)Oc2ccc(cc2Cl)[C@H]1O [Vancomycin] | – | – | 21.0 ± 1.00 mm | – | 20.0 ± 1.00 mm | – | – | MIC, MRSA5677 [12]: 3.13; MIC, Wild type [13]: 1.56; MIC, MRSA5676 [14]: 1.56
[H]/N=C(/N)N[C@H]1[C@H](O)[C@@H](O)[C@H](O[C@@H]2O[C@@H](C)[C@](O)(C=O)[C@H]2O[C@@H]2O[C@@H](CO)[C@H](O)[C@@H](O)[C@@H]2NC)[C@@H](N/C(N)=N\[H])[C@@H]1O [Streptomycin] | – | – | – | 22.1 ± 1.00 mm | – | 21.2 ± 1.00 mm | – | –
COc1ccc(Cl)cc1C(=O)NCCc1ccc(S(=O)(=O)NC(=O)NC2CCCCC2)cc1 [Glibenclamide] | – | – | – | – | – | – | – | Blood glucose [15]: 26.9 ± 1.56 mmol/L; Body weight [15]: 201 ± 3.61 g; Total cholesterol [15]: 2.57 ± 1.09 mmol/L; Total triglyceride [15]: 7.84 ± 2.21 mmol/L
C=C1CCC2[C@](C)(CO)[C@H](O)CC[C@@]2(C)[C@@H]1C/C=C1/C(=O)OCC1OC(=O)/C=C/c1ccc([N+](=O)[O-])cc1 (some centres unmarked) [ANO, 14-[4′-nitrocinnamyl]-3,19-dihydroxy-andrographolide] | ^b (incompetence (inhibition zone diameter <4 mm)) | ^b (incompetence (inhibition zone diameter <4 mm)) | 6.4 ± 0.42 mm | ^b (incompetence (inhibition zone diameter <4 mm)) | 8.1 ± 0.64 mm | 8.3 ± 0.99 mm | ^b (incompetence (inhibition zone diameter <4 mm)) | MIC, MRSA5677 [12]: 25; inhibition of the secretion of pyocyanin [16]: AL-1>Andro>ANO; effect on cell cycle / apoptosis of L1210 cells ([11]; 10 μM, after 12 h): arrest L1210 cells at G1 prophase; MIC, Wild type [13]: 62.5; MIC, MRSA5676 [14]: 62.5; IC50 ([4]; Mus musculus, L1210 cells, 48 h, MTT, read-out: IC50): 9.96 ± 2.25 µM; inhibition of the production/activity of extracellular protease [17]: AL-1>ANO>Andro
potassium dehydroandrograpolide succinate [Chuanhuning] | ^b (incompetence (inhibition zone diameter <4 mm)) | ^b (incompetence (inhibition zone diameter <4 mm)) | ^b (incompetence (inhibition zone diameter <4 mm)) | ^b (incompetence (inhibition zone diameter <4 mm)) | ^b (incompetence (inhibition zone diameter <4 mm)) | ^b (incompetence (inhibition zone diameter <4 mm)) | ^b (incompetence (inhibition zone diameter <4 mm)) | inhibition of the growth of Pseudomonas aeruginosa (growth curve, A600) [3]: no direct inhibition effect; IC50 [4, 20]: > 100 µM
O=C(O)CCCCC1CCSS1 (stereo not drawn) [lipoic acid, Alpha-lipoic acid] | – | – | – | – | – | – | – | increase of glutathione level [18]: 30%-70%; inhibition of NF-kappaB activity induced by TNF-α [19]: 81%
C=C1CCC2[C@@](C)(CC[C@@H](O)[C@@]2(C)CO)C1CC(C1=CCOC1=O)S(=O)(=O)[O-].[Na+] (some centres unmarked) [Lianbizhi, andrographolide sodium bisulfite] | ^b (incompetence (inhibition zone diameter <4 mm)) | ^b (incompetence (inhibition zone diameter <4 mm)) | ^b (incompetence (inhibition zone diameter <4 mm)) | ^b (incompetence (inhibition zone diameter <4 mm)) | ^b (incompetence (inhibition zone diameter <4 mm)) | ^b (incompetence (inhibition zone diameter <4 mm)) | ^b (incompetence (inhibition zone diameter <4 mm)) | inhibition of the growth of Pseudomonas aeruginosa (growth curve, A600) [3]: no direct inhibition effect; IC50 ([4]; Mus musculus, L1210, 48 h): > 100 µM
